Source: US20250073206A1, “SOLID FORMS OF […] […] USES THEREOF” (Sensorium Therapeutics, Inc., priority 2021, published 2025)
Converted amounts (≈) assume the structure as drawn.

How the values were obtained:
[1] = Approximate solubility by visual observation at 25° C.; assay type: physicochemical; settings: thermodynamic from solid
Protocol: About 5 mg of batch 1 was weighed into a 2 mL glass vial and aliquots of 20 μL of each solvent were added to get a clear solution. Max. volume of each solvent added was 1 mL.

[2] = molecular target: sodium-dependent serotonin transporter (SERT) (Homo sapiens, UniProt P31645); settings: naturally occurring, from Sceletium tortuosum; cited from earlier work
Chain of sodium-dependent serotonin transporter (SERT) (P31645 whole entry, species assumed): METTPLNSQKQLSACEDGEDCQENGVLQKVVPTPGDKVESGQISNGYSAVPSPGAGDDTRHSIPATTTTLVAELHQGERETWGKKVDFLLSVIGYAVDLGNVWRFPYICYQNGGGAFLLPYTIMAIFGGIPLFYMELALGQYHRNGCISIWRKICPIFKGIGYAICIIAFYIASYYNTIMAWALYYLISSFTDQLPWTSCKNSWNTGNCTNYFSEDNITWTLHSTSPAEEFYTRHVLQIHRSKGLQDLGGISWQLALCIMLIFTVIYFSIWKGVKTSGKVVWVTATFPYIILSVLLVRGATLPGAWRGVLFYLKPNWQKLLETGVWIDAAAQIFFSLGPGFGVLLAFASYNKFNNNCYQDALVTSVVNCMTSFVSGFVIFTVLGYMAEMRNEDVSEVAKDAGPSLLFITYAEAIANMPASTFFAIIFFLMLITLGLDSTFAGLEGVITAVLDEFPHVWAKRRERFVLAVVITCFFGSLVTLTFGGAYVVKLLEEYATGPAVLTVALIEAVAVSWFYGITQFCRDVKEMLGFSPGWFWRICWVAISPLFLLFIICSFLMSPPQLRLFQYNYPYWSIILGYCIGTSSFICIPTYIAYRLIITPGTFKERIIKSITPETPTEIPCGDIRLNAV

Which solubility ([1]; organic solvent or mixture, Acetone) does the source give for `COc1ccc([C@@]23CCC(=O)C[C@@H]2N(C)CC3)cc1OC` [(−) mesembrine, 3a-(3,4-dimethoxyphenyl)-octahydro-1-methyl-6H-indol-6-one] here?
Its solubility is 125 to 250 mg/mL (≈ 432 to 864 mM).

What about the solubility ([1]; organic solvent or mixture, Acetonitrile) of the same molecule?
The solubility was 125 to 250 mg/mL (≈ 432 to 864 mM).

What about the solubility ([1]; organic solvent or mixture, Dichloromethane) of the same molecule?
Its solubility is 125 to 250 mg/mL (≈ 432 to 864 mM).

What about the solubility ([1]; organic solvent or mixture, Ethanol) of the same molecule?
The solubility was 125 to 250 mg/mL (≈ 432 to 864 mM).

And the solubility ([1]; organic solvent or mixture, Ethyl acetate)?
Its solubility is 125 to 250 mg/mL (≈ 432 to 864 mM).

And the solubility ([1]; organic solvent or mixture, Methanol)?
The solubility was 125 to 250 mg/mL (≈ 432 to 864 mM).

What about the solubility ([1]; organic solvent or mixture, Tetrahydrofuran) of the same molecule?
The solubility was 125 to 250 mg/mL (≈ 432 to 864 mM).

What about the solubility ([1]; organic solvent or mixture, Toluene) of the same molecule?
The solubility was 7 to 10 mg/mL (≈ 24.2 to 34.6 mM).

What about the solubility ([1]; organic solvent or mixture, t-Butyl methyl ether) of the same molecule?
Its solubility is 125 to 250 mg/mL (≈ 432 to 864 mM).

And the solubility ([1]; Water)?
Its solubility is 125 to 250 mg/mL (≈ 432 to 864 mM).

What about the “serotonin (5-HT) uptake inhibitory activity” value [2] of the same molecule?
Its value is “serotonin (5-HT) uptake inhibitory activity”.
